Experimental data published in patent publication US9464092B2, “Transient protection of normal cells during chemotherapy” (G1 Therapeutics, Inc., priority 2013, dated 2016).
Where two headings read alike, the source gives them in different places.

Assays:
[1] = Mouse pharmacokinetics (oral gavage / intravenous); format: in vivo, mice; settings: mouse
[2] = Metabolic stability in liver microsomes; format: in vitro ADME, human, dog, rat, monkey, and mouse; settings: each of the species tested
Procedure: Human, mouse, and dog liver microsomes were purchased from Xenotech, and Sprague-Dawley rat liver microsomes were prepared by Absorption Systems. The reaction mixture comprising 0.5 mg/mL of liver microsomes, 100 mM of potassium phosphate, pH 7.4, 5 mM of magnesium chloride, and 1 uM of test compound was prepared. The test compound was added into the reaction mixture at a final concentration of 1 uM. An aliquot of the reaction mixture (without cofactor) was incubated in shaking water bath at 37 deg. C. for 3 minutes. The control compound, testosterone, was run simultaneously with the test compound in a separate reaction. The reaction was initiated by the addition of cofactor (NADPH), and the mixture was then incubated in a shaking water bath at 37 deg. C. Aliquots (100 μL) were withdrawn at 0, 10, 20, 30, and 60 minutes for the test compound and 0, 10, 30, and 60 minutes for testosterone. […] Test compound samples were analyzed using the Orbitrap high resolution mass spectrometer to quantify the disappearance of parent test compound and detect the appearance of metabolites. […] Half-lives were calculated using GraphPad software, fitting to a single-phase exponential decay equation.
When calculated half-life was longer than the duration of the experiment, the half-life was expressed as >the longest incubation time. The calculated half-life is also listed in parentheses. […]

[3] = test system: hematopoietic cells (bone marrow); test: EdU incorporation in hematopoietic cell lineages of C57Bl/6 mice; format: in vivo; settings: 150 mg/kg oral gavage, 12 hours
Procedure: Ten-hours later, all mice were given a single i.p. injection of 100 mcg EdU (5-ethynyl-2′-deoxyuridine) to label cells in S-phase of the cell cycle. All treated mice were euthanized 2 hours after EdU injection, bone marrow cells were harvested and processed for flow cytometric analysis of EdU-incorporation (FIG. 13).

[4] = test system: tHS68 cells (CDK4/6-dependent cell line); test: Cell cycle arrest by propidium iodide flow cytometry, tHS68; format: cell-based, human; settings: 300 nM, 24 hours
Text: To test the ability of Cdk4/6 inhibitors to induce a clean G1-arrest, a cell based screening method was used consisting of two Cdk4/6-dependent cell lines (tHS68 and WM2664; Rb-positive) and one Cdk4/6-independent (A2058; Rb-negative) cell line. […] At the conclusion of the experiment, cells were harvested, fixed, and stained with propidium iodide (a DNA intercalator), which fluoresces strongly red (emission maximum 637 nm) when excited by 488 nm light. Samples were run on Dako Cyan flow cytometer and >10,000 events were collected for each sample. Data were analyzed using FlowJo 2.2 software developed by TreeStar, Inc.

[5] = test system: Rb phosphorylation at Ser780 and Ser807/811; test: Rb phosphorylation western blot; format: cell-based; settings: 300 nM
Procedure: The Cdk4/6-cyclin D complex is essential for progression from G1 to the S-phase of the DNA cell cycle. This complex phosphorylates the retinoblastoma tumor suppressor protein (Rb). […] Samples were lysed and protein was assayed by western blot analysis. Rb phosphorylation was measured at two sites targeted by the Cdk4/6-cyclin D complex, Ser780 and Ser807/811 using species specific antibodies.

[6] = test system: telomerized human diploid fibroblasts (tHDFs); test: Caspase 3/7 activation in tHDF cells with chemotherapy; format: cell-based; settings: pretreatment before carboplatin, doxorubicin, etoposide, camptothecin, and paclitaxel
Procedure: Cell survival was determined by Cell TiterGlo assay per manufacturer's recommendations. For both γ-H2AX and caspase 3/7 assays, cells were plated and allowed to become adherent for 24 hours. […] For γ-H2AX, cells were harvested for analysis 8 hours after chemotherapy exposure. For the γ-H2AX assay, cells were fixed, permeabilized, and stained with anti-γ-H2AX as per the γ-H2AX Flow Kit (Millipore) and quantitated by flow cytometry. Data was analyzed using FlowJo 2.2 software developed by TreeStar, Inc. For the in vitro caspase 3/7 assay, cells were harvested 24 hours post chemotherapy treatment. Caspase 3/7 activation was measured using the Caspase-Glo® 3/7 Assay System (Promega) per manufacturer's recommendations.

[7] = test system: blood cell counts; test: 5FU-induced myelosuppression, single dose; format: in vivo, FVB/n female mice; settings: 150 mg/kg oral, 30 minutes before 5FU 150 mg/kg i.p.
Procedure: Complete blood cell counts were measured every two days starting on day six.

## CN1CCN(c2ccc(Nc3ncc4cc5n(c4n3)C3(CCCCC3)CNC5=O)nc2)CC1 [Compound T]
[1]
  F: 80%
[1]; plasma, po, 30 mg/kg, 30 mg/kg oral gavage, read-out: t1/2 p.o. (converted)
  half-life: 5 h
[1]; plasma, po, 30 mg/kg, read-out: plasma half-life following oral administration
  half-life: 3 to 5 h
[1]; plasma, po, 30 mg/kg, read-out: oral bioavailability (F (%))
  bioavailability: 52 to 80%
[1]; plasma, iv, 10 mg/kg i.v.
  AUC(0-inf): 1.3 µM·h
  clearance: 35 mL/min/kg
[1]; plasma, iv, 10 mg/kg i.v., read-out: Vss
  Vd: 2.7 L/kg
[1]; plasma, 30 mg/kg oral gavage
  AUC: 2.9 µM·h
  Cmax: 2500 nM
  Tmax: 1 h
[2]
  half-life in liver microsomes compared with PD0332991: shorter half-life than PD0332991
[3]
  inhibition of hematopoietic stem cells (HSC), EdU: 74%
  inhibition of multipotent progenitors (MPP), EdU: 90%
  reduction in EdU+ cell frequency, B cell progenitors: > 80%
  reduction in EdU+ cell frequency, Mac1+G1+ myeloid cells: 46%
  reduction in EdU+ cell frequency, T cell progenitors: > 99%
  reduction in EdU+ cell frequency, Ter119+ erythroid cells: 58%
  reduction in EdU+ cell frequency, lineage restricted myeloid (CMP, GMP and MEP) and lymphoid progenitors (CLP): 76-92%
  reduction of EdU+ cell frequency in unfractionated whole bone marrow cells: ~70%
[4]
  effect on S-phase peak: causes a loss of the S-phase peak
[5]; Rb-dependent cell lines (tHS68, WM2664)
  time post exposure by which Rb phosphorylation is blocked: ≤ 16 h
[5]; Rb-independent cells (A2058)
  effect on Rb phosphorylation: no effect
[6]
  caspase 3/7 activation: robust decrease in caspase 3/7 activation in a dose-dependent manner
[7]
  blood cell counts on day 14 after 5FU: significant protection of each cell type at Day 14
  recovery of hematopoietic cell lineages after 5FU: more rapid recovery
